Earlier results, collected in patent US9623127B2, “Multimodal contrast and radiopharmaceutical agent for an imaging and a targeted therapy guided by imaging” (CENTRE NATIONAL DE LA RECHERCHE SCIENTIFIQUE, priority 2011, dated 2017).

Details: 0.6 T, 20° C.

- longitudinal relaxivity r1: 5.4 mM⁻¹ s⁻¹
Structure (SMILES): O=C([O-])CN(CCN(CC(=O)[O-])CC(=O)O)CCN(CC(=O)[O-])CC(=O)O.[Gd+3] [Gd(III)DTPA]
